Data: PubChem BioAssay (NCI)
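Protocol summary: plate cells (96-well), add compound at 5 concentrations, incubate 48 h, interpolate endpoints linearly. Abbreviation: GI50, concentration required for 50% inhibition of growth. TGI is the concentration that stops growth completely.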

What was measured:
Experiment in all cases: NCI tumour cell line growth inhibition, 48 h
UO-31 renal = system: UO-31 renal
SNB-19 CNS = system: SNB-19 CNS
LOX IMVI melanoma = system: LOX IMVI melanoma
OVCAR-4 ovarian = system: OVCAR-4 ovarian
HCC-2998 colon = system: HCC-2998 colon
MCF7 breast = system: MCF7 breast
U251 CNS = system: U251 CNS
COLO 205 colon = system: COLO 205 colon
SF-295 CNS = system: SF-295 CNS
SK-OV-3 ovarian = system: SK-OV-3 ovarian

| SMILES | GI50 (UO-31 renal) [µM] | TGI (UO-31 renal) [µM] | GI50 (SNB-19 CNS) [µM] | TGI (SNB-19 CNS) [µM] | GI50 (LOX IMVI melanoma) [µM] | TGI (LOX IMVI melanoma) [µM] | GI50 (OVCAR-4 ovarian) [µM] | TGI (OVCAR-4 ovarian) [µM] | GI50 (HCC-2998 colon) [µM] | TGI (HCC-2998 colon) [µM] | GI50 (MCF7 breast) [µM] | TGI (MCF7 breast) [µM] | GI50 (U251 CNS) [µM] | TGI (U251 CNS) [µM] | GI50 (COLO 205 colon) [µM] | TGI (COLO 205 colon) [µM] | GI50 (SF-295 CNS) [µM] | TGI (SF-295 CNS) [µM] | GI50 (SK-OV-3 ovarian) [µM] | TGI (SK-OV-3 ovarian) [µM] |
| --- | --- | --- | --- | --- | --- | --- | --- | --- | --- | --- | --- | --- | --- | --- | --- | --- | --- | --- | --- | --- |
| CCOC(=O)c1cc2c(cc1Cl)SC(=Nc1ccccc1)N(S(=O)(=O)c1ccc(Br)s1)S2(=O)=O | 22.1 | 53.9 | 36.6 | > 100 | 11.2 | 24.1 | 23.4 | 59.8 | 16.7 | 31.6 | 16.5 | 45.8 | 11.7 | 25.8 | 25.2 | > 100 | 21.5 | 46.4 | 34.5 | > 100 |
| Nc1nc(N)c(CCCCc2ccccc2)c(N)n1 | – | > 100 | – | > 100 | – | > 100 | – | > 100 | – | > 100 | – | > 100 | – | > 100 | – | > 100 | – | > 100 | – | > 100 |
| N/C(=N\OC(=O)c1ccccc1)C(Cc1ccccc1)C(=O)NOC(=O)c1ccccc1 (configuration not stated) | 1.45 | 3.07 | 3.55 | 15.6 | 1.46 | 3.68 | 4.38 | 27.3 | 5.4 | 19.7 | 2.78 | 10.3 | 1.36 | 2.87 | 3.94 | 14.7 | 1.38 | 3.1 | 5.48 | 18.2 |
| COc1cc2c(cc1F)C(c1ccccc1Cl)=Nc1c(n[nH]c1C)N2 | 0.84 | 6.25 | 8.69 | 22.3 | 0.94 | 13.1 | 5.63 | 28.6 | 11.3 | 24.1 | 1.03 | 20.7 | 0.583 | 18.3 | 0.416 | 3.79 | 0.477 | 15.7 | 1.59 | 33.1 |
| O=C1C(OCCOc2ccccc2)=C(OCCOc2ccccc2)C(=O)c2ccccc21 | 12.2 | > 100 | 11.1 | > 100 | 3.75 | > 100 | 7.1 | > 100 | 11.6 | > 100 | 7.74 | > 100 | 5 | > 100 | 41.9 | > 100 | 5.11 | > 100 | 23.1 | > 100 |
| Cc1[nH]c(-c2cc(N)ccc2Cl)c2c1C(=O)CCCC2 | 0.477 | 15.1 | 4.53 | > 100 | 2.25 | 7.39 | 2.95 | > 100 | 3.39 | 16.5 | 2.32 | > 100 | 5.75 | > 100 | 3.91 | > 100 | 8.01 | > 100 | 3.56 | 36.6 |
| O=C(Nc1ccccc1OC(=O)c1ccccc1)c1ccccc1 | 13.8 | > 100 | 25.1 | > 100 | 3.92 | > 100 | 18.7 | > 100 | 30.1 | > 100 | 12.9 | > 100 | 6.35 | > 100 | 30.1 | 95.6 | 2.47 | 8.03 | 33.6 | > 100 |
| COC(=O)c1cc(-c2ccc(OC)c(OC)c2)[nH]c1N/N=C/c1c(Cl)cccc1Cl | 0.834 | 3.25 | 0.673 | 6.98 | 0.837 | 13 | 1.67 | 12.1 | 0.265 | 1.43 | 0.301 | 1.44 | 0.671 | 2.43 | 0.901 | 4.95 | 0.257 | 2.07 | 0.567 | 2.66 |
| Oc1cc(-n2cccn2)c(O)cc1-n1cccn1 | – | 54.2 | – | > 82.3 | – | 42.4 | – | 36.9 | – | > 100 | – | 55.1 | – | > 78.2 | – | 37.9 | – | 60.2 | – | > 100 |
| CNNC(=NS(=O)(=O)c1cc(C#N)c(NNC)cc1S)NNC | – | > 10 | – | > 10 | – | > 10 | – | > 10 | – | > 10 | – | > 10 | – | > 10 | – | > 10 | – | > 10 | – | > 10 |
| O=C1c2c(Br)sc(Br)c2[C@@H](NC(=O)C(F)(F)F)C1Br (some centres not stated) | – | 12.5 | – | 25.9 | – | 3.24 | – | 5.33 | – | 7.8 | – | 15.6 | – | 9.08 | – | 4.02 | – | 31.6 | – | 32.8 |
| COc1ccc2c(c1)C(=O)c1c-2c(OCCN(C)C)nc2ccccc12 | 0.962 | 2.76 | 2.68 | 12.4 | 1.54 | 4.91 | 3.03 | 10.8 | 3.89 | 14.5 | 1.76 | 10.9 | 2.28 | 9.87 | 1.83 | 10.1 | – | – | 4.87 | 35.3 |
| Oc1c(-c2cc(C(F)(F)F)[nH]n2)cc(Cl)c(OCc2ccc(Cl)cc2)c1-c1ccc(Cl)c(C(F)(F)F)c1 | 0.818 | 2.21 | 0.565 | 6.62 | 0.967 | 2.9 | 1.31 | 7.41 | 0.739 | 4.53 | 0.228 | 5.39 | 0.5 | 5.76 | 0.867 | 1.79 | 0.607 | 1.96 | 1.54 | 4.66 |
| O=C(NNS(=O)(=O)c1ccc(Cl)cc1Cl)c1cccnc1Nc1ccc(Cl)cc1 | 37.2 | > 100 | 27 | > 100 | 21.1 | 46.5 | 28.7 | > 100 | 13.6 | 29 | 35.2 | > 100 | 34.4 | > 100 | 12.1 | 24.4 | 30.2 | 77.7 | 17.1 | 52.4 |
| COc1cc2cc(Oc3ccc(NC(=O)c4ccc(Cl)c(Cl)c4)cc3)c(C)nc2cc1OC | 8.44 | > 100 | > 100 | > 100 | > 100 | > 100 | 5.26 | > 100 | > 100 | > 100 | 5.32 | > 100 | > 100 | > 100 | 6.44 | > 100 | 1.59 | > 100 | > 100 | > 100 |
| COc1ccc2c(-c3ccnc(Nc4cccc(OC(F)(F)F)c4)n3)cnn2n1 | 2.55 | > 12.3 | 1.67 | > 23.2 | 1.02 | 6.47 | 3.32 | 12.5 | 2.14 | 8.82 | 1.07 | 6.15 | 1.08 | 5.18 | 1.3 | > 19.9 | 0.683 | > 14.8 | 1.19 | 6.1 |
| Nc1n[nH]c2ccc([C@@H]3Nc4cc5c(cc4[C@H]4C6CCC(C6)[C@@H]34)C(=O)NC5)cc12 (some centres not stated) | – | > 100 | 0.57 | > 100 | 0.291 | > 100 | 1.37 | > 100 | 0.362 | > 41.5 | 0.18 | > 100 | 0.418 | > 100 | 0.326 | 1.7 | 0.323 | > 42 | 0.844 | > 100 |
| CCN1C(=O)N(CC)C2C1NN=c1s/c(=C\c3ccc(F)cc3)c(=O)n12 (configuration not stated) | 0.601 | > 100 | 0.374 | > 100 | 0.338 | > 100 | 0.786 | > 100 | 0.319 | > 100 | 0.0454 | > 100 | 0.241 | > 100 | 0.277 | 1.43 | 0.0819 | > 100 | 0.343 | > 100 |
| C[n+]1c2ccccc2nc2c(N)cc(N)cc21 | 26.2 | > 100 | 2.9 | 14.4 | 18 | 94 | 5.87 | > 100 | 12.6 | 93.2 | 5.1 | 37.3 | 2.5 | > 100 | 3.49 | 19.4 | 3.6 | 31 | 25.8 | > 100 |
| C[C@@H]1Cc2cc(O)ccc2[C@H]2CC[C@]3(C)/C(=C/COCCN(C)C)CC[C@H]3[C@H]12 (tested in a mixture with another compound) | 0.221 | 0.514 | 0.364 | 1.34 | 0.187 | 0.389 | 0.271 | 0.771 | 0.448 | 1.65 | < 0.0208 | 0.612 | 0.216 | 0.528 | 0.363 | 1.03 | 0.175 | 0.474 | 0.228 | 0.62 |
